The results in this text go back to patent US10435398B2, “Oxazole orexin receptor antagonists” (MERCK SHARP & DOHME CORP., priority 2014, dated 2019).

In one experiment the target is human orexin-2 receptor (Homo sapiens (Human), UniProt O43614). The experiment in a line: FLIPR Ca2+ Flux Assay, hOX2R. It counts as cell-based. Conditions: CHO cells expressing human orexin-2 receptor; agonist 70 pM Ala-6,12 human orexin-A. As for the experimental part: (§1) The utility of the compounds in accordance with the present invention as orexin receptor OX1R and/or OX2R antagonists may be readily determined without undue experimentation by methodology well known in the art, including the “FLIPR Ca^2+ Flux Assay” (Okumura et al., Biochem. Biophys. Res. Comm. 280:976-981, 2001). In a typical experiment the OX1 and OX2 receptor antagonistic activity of the compounds of the present invention was determined in accordance with the following experimental method. For intracellular calcium measurements, Chinese hamster ovary (CHO) cells expressing the rat or human orexin-1 receptor or the human orexin-2 receptor, are grown in Iscove's modified DMEM containing 2 mM L-glutamine, […], 1% hypoxanthine-thymidine supplement, 100 U/ml penicillin, 100 μg/ml streptomycin and 10% heat-inactivated fetal calf serum (FCS). The cells are seeded at 20,000 cells/well into Becton-Dickinson black 384-well clear bottom sterile plates coated with poly-D-lysine. All reagents were from GIBCO-Invitrogen Corp. The seeded plates are incubated overnight at 37° C. and 5% CO2. Ala-6,12 human orexin-A as the agonist is prepared as a 1 mM stock solution in 1% bovine serum albumin (BSA) and diluted in assay buffer (HBSS containing 20 mM HEPES, 0.1% BSA and 2.5 mM probenecid, pH7.4) for use in the assay at a final concentration of 70 pM. Test compounds are prepared as 10 mM stock solution in DMSO, then diluted in 384-well plates, first in DMSO, then assay buffer. On the day of the assay, cells are washed 3 times with 100 μl assay buffer and then incubated for 60 min (37° C., 5% CO2) in 60 μl assay buffer containing 1 μM Fluo-4AM ester, 0.02% pluronic acid, and 1% BSA. The dye loading solution is then aspirated and cells are washed 3 times with 100 μl assay buffer. 30 μl of that same buffer is left in each well. Within the Fluorescent Imaging Plate Reader (FLIPR, Molecular Devices), test compounds are added to the plate in a volume of 25 μl, incubated for 5 min and finally 25 μl of agonist is added. Fluorescence is measured for each well at 1 second intervals for 5 minutes and the height of each fluorescence peak is compared to the height of the fluorescence peak induced by 70 pM Ala-6,12 orexin-A with buffer in place of antagonist. For each antagonist, IC50 value (the concentration of compound needed to inhibit 50% of the agonist response) is determined. Alternatively, compound potency can be assessed by a radioligand binding assay (described in Bergman et. al. Bioorg. Med. Chem. Lett. 2008, 18, 1425-1430) in which the inhibition constant (Ki) is determined in membranes prepared from CHO cells expressing either the OX1 or OX2 receptor. The intrinsic orexin receptor antagonist activity of a compound which may be used in the present invention may be determined by these assays.
Background: Calcium flux is commonly read through the fluorescence of an indicator in the cells.

In another experiment the target is human orexin-1 receptor (Homo sapiens (Human), UniProt O43613). As to the kind of experiment: FLIPR Ca2+ Flux Assay, hOX1R. It counts as cell-based. Conditions: CHO cells expressing human orexin-1 receptor; agonist 70 pM Ala-6,12 human orexin-A. Here is the method: as §1

SMILES strings stand for the structures. Where only a bound is given, the exact number is not on record here.

Sequence of human orexin-2 receptor (O43614 whole entry): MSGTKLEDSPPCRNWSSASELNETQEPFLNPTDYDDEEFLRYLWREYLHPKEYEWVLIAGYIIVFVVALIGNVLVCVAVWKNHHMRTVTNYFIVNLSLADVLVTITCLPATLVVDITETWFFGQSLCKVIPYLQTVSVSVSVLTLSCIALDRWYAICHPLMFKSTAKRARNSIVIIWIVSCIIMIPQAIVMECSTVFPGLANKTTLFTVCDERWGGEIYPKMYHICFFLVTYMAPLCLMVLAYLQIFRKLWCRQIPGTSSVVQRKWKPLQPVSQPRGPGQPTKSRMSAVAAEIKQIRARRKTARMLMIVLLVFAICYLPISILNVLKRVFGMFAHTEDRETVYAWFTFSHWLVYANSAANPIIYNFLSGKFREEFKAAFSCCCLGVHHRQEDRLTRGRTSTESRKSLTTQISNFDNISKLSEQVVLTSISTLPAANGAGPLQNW
Sequence of human orexin-1 receptor (O43613 whole entry): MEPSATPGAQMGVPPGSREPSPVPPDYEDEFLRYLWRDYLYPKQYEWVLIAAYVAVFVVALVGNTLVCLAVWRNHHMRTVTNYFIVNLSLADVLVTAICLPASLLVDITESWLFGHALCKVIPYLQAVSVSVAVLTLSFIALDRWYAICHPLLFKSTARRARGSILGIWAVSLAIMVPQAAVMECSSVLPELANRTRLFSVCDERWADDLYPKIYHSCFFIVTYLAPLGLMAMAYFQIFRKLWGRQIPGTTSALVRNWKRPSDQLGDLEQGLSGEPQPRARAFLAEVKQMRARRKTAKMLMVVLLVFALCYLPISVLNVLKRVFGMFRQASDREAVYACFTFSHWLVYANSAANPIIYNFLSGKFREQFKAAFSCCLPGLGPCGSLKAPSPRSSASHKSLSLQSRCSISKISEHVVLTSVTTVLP

What is called IC50 is the concentration that inhibits the measured activity by half. Lower therefore signals greater potency. With `CCN(CCc1nc(C(C)(C)O)c(C)o1)C(=O)c1ccccc1-n1nccn1` [Example 11, N-Ethyl-N-{2-[4-(1-hydroxy-1-methylethyl)-5-methyl-1,3-oxazol-2-yl]ethyl}-2-(2H-1,2,3-triazol-2-yl)benzamide], the IC50 on human orexin-2 receptor turned out to be 27 nM; at human orexin-1 receptor it was 2590 nM.

As for `CCN(CCc1nc(C(C)(C)O)c(C)o1)C(=O)c1ccccc1CC(F)(F)F` [Example 14, N-Ethyl-N-{2-[4-(1-hydroxy-1-methylethyl)-5-methyl-1,3-oxazol-2-yl]ethyl}-2-(2,2,2-trifluoroethyl)benzamide], the IC50 on human orexin-2 receptor was 211 nM; at human orexin-1 receptor, above 10000 nM.

Consider `Cc1oc(CCN(CCCO)C(=O)c2ccccc2-n2nccn2)nc1C(C)(C)O` [Example 27, N-{2-[4-(1-Hydroxy-1-methylethyl)-5-methyl-1,3-oxazol-2-yl]ethyl}-N-(3-hydroxypropyl)-2-(2H-1,2,3-triazol-2-yl)benzamide], for which the IC50 on human orexin-2 receptor was 304 nM; at human orexin-1 receptor it was above 10000 nM.

Regarding `CCN(CCc1nc(C(C)(O)C(C)C)c(C)o1)C(=O)c1ccccc1-n1nccn1` (centres unmarked) [Example 20, N-Ethyl-N-{2-[4-(1-hydroxy-1,2-dimethylpropyl)-5-methyl-1,3-oxazol-2-yl]ethyl}-2-(2H-1,2,3-triazol-2-yl)benzamide], the results for the 50% inhibitory concentration (IC50) on human orexin-2 receptor and at human orexin-1 receptor were 19 nM and 2670 nM, respectively.

As for `CCN(CCc1nc(C(C)(C)O)c(C)o1)C(=O)c1ccccc1-c1nc(C)no1` [Example 10c, N-ethyl-N-{2-[4-(1-hydroxy-1-methylethyl)-5-methyl-1,3-oxazol-2-yl]ethyl}-2-(3-methyl-1,2,4-oxadiazol-5-yl)benzamide], the IC50 was 212 nM on human orexin-2 receptor and above 10000 nM on human orexin-1 receptor.

Turning to `CCN(CCc1nc(C(C)(C)O)c(C)o1)C(=O)c1ccccc1-n1ncnn1` [Example 9, N-ethyl-N-{2-[4-(1-hydroxy-1-methylethyl)-5-methyl-1,3-oxazol-2-yl]ethyl}-2-(2H-tetrazol-2-yl)benzamide], the IC50 on human orexin-2 receptor is 491 nM; on human orexin-1 receptor, above 10000 nM.

As to `CCN(CCc1nc(C(C)(C)O)c(C)o1)C(=O)c1sccc1-n1nccn1` [Example 10d, N-ethyl-N-{2-[4-(1-hydroxy-1-methylethyl)-5-methyl-1,3-oxazol-2-yl]ethyl}-3-(2H-1,2,3-triazol-2-yl)thiophene-2-carboxamide], the results for the IC50 at human orexin-2 receptor and on human orexin-1 receptor were 435 nM and above 10000 nM, respectively.

As to `CCN(CCc1nc(C(C)(C)O)c(C)o1)C(=O)c1ccccc1C1(C#N)CC1` [Example 10b, 2-(1-cyanocyclopropyl)-N-ethyl-N-{2-[4-(1-hydroxy-1-methylethyl)-5-methyl-1,3-oxazol-2-yl]ethyl}benzamide], the IC50 on human orexin-2 receptor is 26 nM; on human orexin-1 receptor it was 1760 nM.

For `CCN(CCc1nc(C(C)(C)O)c(C)o1)C(=O)c1cccc(C)c1-n1nccn1` [Example 2, N-Ethyl-N-{2-[4-(1-hydroxy-1-methylethyl)-5-methyl-1,3-oxazol-2-yl]ethyl}-3-methyl-2-(2H-1,2,3-triazol-2-yl)benzamide], the IC50 at human orexin-2 receptor is 54 nM; on human orexin-1 receptor, above 10000 nM.

Take `CCCN(CCc1nc(C(C)(C)O)c(C)o1)C(=O)c1ccccc1-n1nccn1` [Example 22, N-{2-[4-(1-Hydroxy-1-methylethyl)-5-methyl-1,3-oxazol-2-yl]ethyl}-N-propyl-2-(2H-1,2,3-triazol-2-yl)benzamide]: the IC50 at human orexin-2 receptor was found to be 19 nM; at human orexin-1 receptor, 2370 nM.

`CCN(CCc1nc(C(C)(C)O)c(C)o1)C(=O)c1ccc(F)cc1-n1nccn1` [Example 4, N-Ethyl-4-fluoro-N-{2-[4-(1-hydroxy-1-methylethyl)-5-methyl-1,3-oxazol-2-yl]ethyl}-2-(2H-1,2,3-triazol-2-yl)benzamide]: the IC50 at human orexin-2 receptor is 48 nM; at human orexin-1 receptor, above 10000 nM.

For `CCOc1ccccc1C(=O)N(CC)CCc1nc(C(C)(C)O)c(C)o1` [Example 15, 2-Ethoxy-N-ethyl-N-{2-[4-(1-hydroxy-1-methylethyl)-5-methyl-1,3-oxazol-2-yl]ethyl}benzamide], the IC50 was 223 nM on human orexin-2 receptor and above 10000 nM at human orexin-1 receptor.

On to `CCN(CCc1nc(C(C)(C)O)c(C)o1)C(=O)c1cc(F)ccc1-n1nccn1` [Example 7, N-Ethyl-5-fluoro-N-{2-[4-(1-hydroxy-1-methylethyl)-5-methyl-1,3-oxazol-2-yl]ethyl}-2-(2H-1,2,3-triazol-2-yl)benzamide], for which the IC50 on human orexin-2 receptor was 62 nM; on human orexin-1 receptor it was above 10000 nM.

Turning to `CCN(CCc1nc(C(C)(C)O)c(C)o1)C(=O)c1cccc(F)c1-n1nccn1` [Example 3, N-Ethyl-3-fluoro-N-{2-[4-(1-hydroxy-1-methylethyl)-5-methyl-1,3-oxazol-2-yl]ethyl}-2-(2H-1,2,3-triazol-2-yl)benzamide], the IC50 is 44 nM at human orexin-2 receptor and above 10000 nM at human orexin-1 receptor.

For the molecule `Cc1oc(CCN(C(=O)c2ccccc2-n2nccn2)C(C)C)nc1C(C)(C)O` [Example 25, N-{2-[4-(1-Hydroxy-1-methylethyl)-5-methyl-1,3-oxazol-2-yl]ethyl}-N-(1-methylethyl)-2-(2H-1,2,3-triazol-2-yl)benzamide], the concentration for half-maximal inhibition (IC50) was 152 nM on human orexin-2 receptor and above 10000 nM on human orexin-1 receptor.

In the case of `CCN(CCc1nc(C(C)(C)O)c(C)o1)C(=O)c1cccnc1-n1cccn1` [Example 6, N-Ethyl-N-{2-[4-(1-hydroxy-1-methylethyl)-5-methyl-1,3-oxazol-2-yl]ethyl}-2-(1H-pyrazol-1-yl)pyridine-3-carboxamide], the IC50 at human orexin-2 receptor was 101 nM; on human orexin-1 receptor it was above 10000 nM.

In the case of `Cc1oc(CCN(CC2CC2)C(=O)c2ccccc2-n2nccn2)nc1C(C)(C)O` [Example 23, N-(Cyclopropylmethyl)-N-{2-[4-(1-hydroxy-1-methylethyl)-5-methyl-1,3-oxazol-2-yl]ethyl}-2-(2H-1,2,3-triazol-2-yl)benzamide], the IC50 at human orexin-2 receptor came to 21 nM; at human orexin-1 receptor it was 2840 nM.

Take `Cc1oc(CCN(C)C(=O)c2ccccc2-n2nccn2)nc1C(C)(C)O` [Example 30, N-(2-(4-(2-Hydroxypropan-2-yl)-5-methyloxazol-2-yl)ethyl)-N-methyl-2-(2H-1,2,3-triazol-2-yl)benzamide]: the IC50 on human orexin-2 receptor is 390 nM; on human orexin-1 receptor, above 10000 nM.

As to `Cc1oc(CCN(C(=O)c2ccccc2-n2nccn2)C2CC2)nc1C(C)(C)O` [Example 31, N-Cyclopropyl-N-(2-(4-(2-hydroxypropan-2-yl)-5-methyloxazol-2-yl)ethyl)-2-(2H-1,2,3-triazol-2-yl)benzamide], the IC50 worked out at 42 nM on human orexin-2 receptor and 7590 nM at human orexin-1 receptor.

For the molecule `CCN(CCc1nc(C(C)(C)O)c(C)o1)C(=O)c1ccccc1-n1cccn1` [Example 17, N-Ethyl-N-{2-[4-(1-hydroxy-1-methylethyl)-5-methyl-1,3-oxazol-2-yl]ethyl}-2-(1H-pyrazol-1-yl)benzamide], the IC50 is 292 nM on human orexin-2 receptor and above 10000 nM on human orexin-1 receptor.

On to `CCN(CCc1nc(C(C)(C)O)c(C)o1)C(=O)c1ccccc1C1CC1` [Example 5, 2-Cyclopropyl-N-ethyl-N-{2-[4-(1-hydroxy-1-methylethyl)-5-methyl-1,3-oxazol-2-yl]ethyl}benzamide], for which the IC50 is 387 nM at human orexin-2 receptor and above 10000 nM on human orexin-1 receptor.

For the molecule `CCN(CCc1nc(C(C)(C)O)c(C)o1)C(=O)c1cccnc1OCC(F)F` [Example 10, 2-(2,2-difluoroethoxy)-N-ethyl-N-{2-[4-(1-hydroxy-1-methylethyl)-5-methyl-1,3-oxazol-2-yl]ethyl}pyridine-3-carboxamide], the IC50 was 224 nM at human orexin-2 receptor and above 10000 nM on human orexin-1 receptor.
